Read-outs that look alike come from different tables or passages of the source.
Assays:
[1] = biological target: T1, muscarinic receptors (M1-site, pirenzepine sensitive site) (Rattus norvegicus, UniProt P08482); test: Inhibition of ^3HPRZ (pirenzepine) binding to rat cerebral cortex membranes; parameters: species or system male Wistar rats; conditions: 1.0 nM ^3HPRZ, 60 min at 20°C
T1 construct: Fresh cortex (0.1-1 9) from male Wistar rats (150-200 g) is homogenized; from tissue; host or cells: rat cerebral cortex membranes
T1 sequence (P08482 1-460): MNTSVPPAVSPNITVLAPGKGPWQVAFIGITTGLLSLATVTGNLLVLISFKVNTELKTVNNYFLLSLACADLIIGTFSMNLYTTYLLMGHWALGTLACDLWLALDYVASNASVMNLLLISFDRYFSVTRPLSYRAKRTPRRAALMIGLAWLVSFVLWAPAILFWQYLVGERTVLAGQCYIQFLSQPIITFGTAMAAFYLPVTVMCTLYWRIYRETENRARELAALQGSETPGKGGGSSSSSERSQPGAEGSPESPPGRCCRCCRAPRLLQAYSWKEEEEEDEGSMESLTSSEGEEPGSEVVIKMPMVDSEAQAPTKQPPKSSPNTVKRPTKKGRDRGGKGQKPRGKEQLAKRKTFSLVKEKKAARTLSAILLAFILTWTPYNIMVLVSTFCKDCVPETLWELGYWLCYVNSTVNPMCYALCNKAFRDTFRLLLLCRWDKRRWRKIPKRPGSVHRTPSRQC
Procedure: Furthermore the pharmacological properties of the compounds of the invention can also be illustrated by determining their capability to inhibit ^3HPRZ (pirenzepine, [N-methyl^-3H]) binding to rat cerebral cortex membranes.
Pirenzepine binds selectively to subtype of muscarinic receptors. Historically the type is named the M1-site, whereas pirenzepine sensitive site would be more appropriate. Although selective for M1-sites pirenzepine also interact with M2-sites.
(§1) All preparations are performed at 0-4°C unless otherwise indicated. Fresh cortex (0.1-1 9) from male Wistar rats (150-200 g) is homogenized for 5-10 s in 10 mL 20 mM Hepes pH: 7.4, with an Ultra-Turrax homogenizer. The homogenizer is rinsed with 2 x 10 mL of buffer and the combined suspension centrifuged for 15 min. at 40,000 x g. The pellet is washed three times with buffer. In each step the pellet is homogenized as before in 3 x 10 mL of buffer and centrifuged for 10 min. at 40,000 x g.
The final pellet is homogenized in 20 mM Hepes pH: 7.4 (100 mL per g of original tissue) and used for binding assay. Aliquots of 0.5 mL is added 20 µL of test solution and 25 µL of ^3HPRZ (1.0 nM, final conc.), mixed and incubated for 60 min. at 20°C. Non-specific binding is determined in triplicate using atropine (1.0 µg/mL, final conc.) as the test substance. After incubation samples are added 5 mL of ice-cold buffer and poured directly onto Whatman GF/C glass fiber filters under suction and immediately washed 2 times with 5 mL of ice-cold buffer. The amount of radioactivity on the filters are determined by conventional liquid scintillation counting. Specific binding is total binding minus non-specific binding.
Test substances are dissolved in 10 mL water, at a concentration of 0.22 mg/mL. 25-75% inhibition of specific binding must be obtained before calculation of IC50.
The test value will be given as IC50 (the concentration (nM) of the test substance which inhibits the specific binding of ^3HPRZ by 50%). IC50 = (applied test substance concentration) x(Cx/Co-Cx)nM where Co is specific binding in control assays and Cx is the specific binding in the test assay. (The calculations assume normal mass-action kinetics).

[2] = biological target: muscarinic acetylcholine receptors; test: Inhibition of specific binding of ^3H-Oxotremorine-M to rat cortex homogenate; parameters: species or system male Wistar rats; conditions: 1.0 nM ^3H-Oxotremorine, 30 min at 25°C, read-out: ^3H-Oxo-M IC50
From the text: The pharmacological properties of the compounds of the invention can be illustrated by determining their capability to inhibit the specific binding of ^3H-Oxotremorine-M (^3H-Oxo). Birdsdall N.J.M., Hulme E.C., and Burgen A.S.V. (1980). "The Character of Muscarinic Receptors in Different Regions of the Rat Brain". Proc. Roy. Soc. London (Series B) 207,1.
^3H-Oxo labels muscarinic receptor in the CNS (with a preference for agonist domains of the receptors). Three different sites are labeled by ^3H-Oxo. […] Using the present experimental conditions only the high and medium affinity sites are determined.
The inhibitory effects of compounds on ^3H-oxo binding reflects the affinity for muscarinic acetylcholine receptors.
as §1, with “g)” for “9)”, “(150-250” for “(150-200”, “[…]” for “mM”, “with” for “with 2 x”, “2” for “3”
The final pellet is homogenized in 20 mM Hepes pH: 7.4 (100 mL per g of original tissue) and used for binding assay. Aliquots of 0.5 mL is added 25 µL of test solution and 25 µL of ^3H-Oxotremorine (1.0 nM, final concentration) mixed and incubated for 30 min. at 25°C. Non-specific binding is determined in triplicate using arecoline (1 µg/mL, final concentration) as the test substance. After incubation samples are added 5 mL of ice-cold buffer and poured directly onto Whatman GF/C glass fiber filters under suction and immediately washed 2 times with 5 mL of ice-cold buffer. The amount of radioactivity on the filters are determined by conventional liquid scintillation counting. Specific binding is total binding minus non specific binding.
Test substances are dissolved in 10 mL water (if necessary heated on a steam-bath for less than 5 min.) at a concentration of 2.2 mg/mL. 25-75% inhibition of specific binding must be obtained before calculation of IC50. The test value will be given as IC50 (the concentration (nM) of the test substance which inhibits the specific binding of ^3H-oxo by 50%). IC50 = (applied test substance concentration) x(Cx/Co-Cx)nM where Co is specific binding in control assays and Cx is the specific binding in the test assay. (The calculations assume normal mass-action kinetics).

Row | SMILES | IC50 ([1]; read-out: ^3HPRZ IC50) [nM] | IC50 [2] [nM] | IC50 ([1]; ^3HPRZ IC50,nM) [nM]
1 | CCCCSc1nsnc1C1CC2CCC1NC2 (stereo not drawn) [Compound 9, ENDO 2-aza-6-(4-butylthio-1,2,5-thiadiaz-3-yl)bicyclo[2.2.2]octane] | 2.7 | 2 | –
2 | CCCCCOc1nsnc1C1CC2CCC1NC2 (stereo not drawn) [Compound 31, EXO 2-aza-6-(4-pentoxy-1,2,5-thiadiaz-3-yl)bicyclo[2.2.2]octane] | 80 | – | –
3 | CSc1nsnc1C1CC2CCC1NC2 (stereo not drawn) [Compound 19] | 128 | 18 | –
4 | CCCCCCSc1nsnc1C1CC2CCC1NC2 (stereo not drawn) [Compound 28, EXO 2-Aza-6-(4-hexylthio-1,2,5-thiadiaz-3-yl)bicyclo[2.2.2]octane] | 62 | – | –
5 | CCCSc1nsnc1C1CC2CCC1NC2 (stereo not drawn) [Compound 11, ENDO 2-Aza-6-(4-propylthio-1,2,5-thiadiaz-3-yl)bicyclo[2.2.2]octane] | 13 | 4.1 | –
6 | CCCOc1nsnc1C1CC2CCC1NC2 (stereo not drawn) [Compound 13, EXO 2-Aza-6-(4-propoxy-1,2,5-thiadiaz-3-yl)bicyclo[2.2.2]octane] | 172 | 263 | –
7 | CCCCCSc1nsnc1C1CC2CCC1NC2 (stereo not drawn) [Compound 16, EXO 2-aza-6-(4-pentylthio-1,2,5-thiadiaz-3-yl)-bicyclo[2.2.2]octane] | – | 83 | 45
8 | N#Cc1ccc(CSc2nsnc2C2CC3CCC2NC3)s1 (stereo not drawn) [Compound 26, EXO 2-Aza-6-(4-((5-cyanothien-2-yl)methylthio)-1,2,5-thiadiaz-3-yl)-bicyclo[2.2.2]octane] | 20 | – | –
9 | N#Cc1ccc(CSc2nsnc2C2CC3CCC2NC3)cc1 (stereo not drawn) [Compound 24, EXO 2-Aza-6-(4-((4-cyanophenyl)methylthio)-1,2,5-thiadiaz-3-yl)-bicyclo[2.2.2]octane] | – | 60 | 91
10 | CCCCCOc1nsnc1C1CC2CCC1NC2 (stereo not drawn) [Compound 30, ENDO 2-aza-6-(4-pentoxy-1,2,5-thiadiaz-3-yl)-bicyclo[2.2.2]octane] | 15 | – | –
11 | CCCCOc1nsnc1C1CC2CCC1NC2 (single isomer, unassigned) [Compound 4, ENDO 2-aza-6-(4-butyloxy-1,2,5-thiadiaz-3-yl)-bicyclo[2.2.2]octane] | 17 | 4.2 | –
12 | CC(C)CCCSc1nsnc1C1CC2CCC1NC2 (stereo not drawn) [Compound 18, ENDO 2-Aza-6-(4-((4-methylpentyl)thio)-1,2,5-thiadiaz-3-yl)bicyclo[2.2.2]octane] | 13 | – | –
13 | CC(C)CCCSc1nsnc1C1CC2CCC1NC2 (stereo not drawn) [Compound 17] | 170 | – | –
14 | CCCCCCOc1nsnc1C1CC2CCC1N(C)C2 (single isomer, unassigned) [Compound 8, EXO 2-Aza-6-(4-hexyloxy-1,2,5-thiadiaz-3-yl)-2-methylbicyclo[2.2.2]octane] | 58 | – | –
15 | N#Cc1ccc(CSc2nsnc2C2CC3CCC2NC3)s1 (stereo not drawn) [Compound 25, ENDO 2-Aza-6-(4-((5-cyanothien-2-yl)methylthio)-1,2,5-thiadiaz-3-yl)-bicyclo[2.2.2]octane] | 6.2 | – | –
16 | FC(F)(F)c1ccc(COc2nsnc2C2CC3CCC2NC3)cc1 (stereo not drawn) [Compound 33, EXO 2-Aza-6-(4-((4-trifluoromethylphenyl)methoxy)-1,2,5-thiadiaz-3-yl)-bicyclo[2.2.2]octane] | 273 | – | –
17 | FC(F)(F)c1ccc(COc2nsnc2C2CC3CCC2NC3)cc1 (stereo not drawn) [Compound 32, EXO 2-Aza-6-(4-((4-trifluoromethylphenyl)methoxy)-1,2,5-thiadiaz-3-yl)-bicyclo[2.2.2]octane] | 244 | – | –
18 | CCCCOc1nsnc1C1CC2CCC1NC2 (single isomer, unassigned) [Compound 5, EXO 2-aza-6-(4-butyloxy-1,2,5-thiadiaz-3-yl)bicyclo[2.2.2]octane] | 139 | 143 | –
19 | CCCCCCSc1nsnc1C1CC2CCC1NC2 (stereo not drawn) [Compound 27, EXO 2-Aza-6-(4-hexylthio-1,2,5-thiadiaz-3-yl)bicyclo[2.2.2]octane] | 2.3 | – | –
20 | CCCCCSc1nsnc1C1CC2CCC1NC2 (stereo not drawn) [Compound 15, ENDO 2-aza-6-(4-thiopentyl-1,2,5-thiadiaz-3-yl)bicyclo[2.2.2]octane] | – | 3.4 | 5
21 | CSc1nsnc1C1CC2CCC1NC2 (stereo not drawn) [Compound 14, EXO 2-Aza-6-(4-methylthio-1,2,5-thiadiaz-3-yl)bicyclo[2.2.2]octane] | 365 | 685 | –
22 | FC(F)(F)CCCSc1nsnc1C1CC2CCC1NC2 (stereo not drawn) [Compound 20, ENDO 2-Aza-6-(4-((4,4,4-trifluorobutyl)thio)-1,2,5-thiadiaz-3-yl)-bicyclo[2.2.2]octane] | 5.5 | – | –
23 | FC(F)(F)c1ccc(CSc2nsnc2C2CC3CCC2NC3)cc1 (stereo not drawn) [Compound 22, EXO 2-Aza-6-(4-(((4-trifluoromethyl)phenyl)methylthio)-1,2,5-thiadiaz-3-yl)-bicyclo[2.2.2]octane] | 444 | – | –
24 | CCCCCCOc1nsnc1C1CC2CCC1N(C)C2 (single isomer, unassigned) [Compound 7, ENDO 2-Aza-6-(4-hexyloxy-1,2,5-thiadiaz-3-yl)-2-methylbicyclo[2.2.2]octane] | 21 | – | –
25 | N#Cc1ccc(CSc2nsnc2C2CC3CCC2NC3)cc1 (stereo not drawn) [Compound 23, ENDO 2-Aza-6-(4-((4-cyanophenyl)methylthio)-1,2,5-thiadiaz-3-yl)-bicyclo[2.2.2]octane] | – | 26 | 36
